According to PubChem BioAssay AID1250 (SRMLSC, 2008):
The source made the active and inactive calls.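 The calls were made as follows: active = inhibition of at least 30% at one or more tested concentrations; inactive = inhibition below 30% at every dose.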

Assay: antiviral protection against BTV-induced cell death – arbovirus, BSR cells, confirmation (AID 1250)
Settings: BSR cells, Bluetongue virus CPE, ATP luminescence, 72 h

SMILES	CPE inhibition (at 20 µM (top of the series))	CPE inhibition (at 5 µM (top of the series))
COc1ccc(-c2noc(-c3cc(C)cc(C)c3)n2)cc1OC	10% (inactive)	
COc1ccc(-c2csc(Nc3ncccc3C)n2)cc1OC	14.9% (inactive)	
Cc1cccc(-n2nc(C)c3c(C(=O)O)cc(-c4cccs4)nc32)c1	24.9% (inactive)	
Cc1ccc2nc(NC(=O)C3CCCN(S(=O)(=O)c4cnc[nH]4)C3)sc2c1 (stereo not drawn)	22.3% (inactive)	
CCOC(=O)C1(CCCc2ccccc2)CCN(C2CCSCC2)CC1	11.3% (inactive)	
O=C(O)c1ccccc1CSc1ccccn1	2.46% (inactive)	
CC(=O)c1ccc(N2CCN(C(=O)c3cc(-c4cccnc4)nc4ccc(Br)cc34)CC2)cc1	0.41% (inactive)	
O=C(O)c1ccccc1Nc1ccc([N+](=O)[O-])cc1	24.6% (inactive)	
CC1=C(C(=O)OC2CCCCCCC2)C(c2cccc(O)c2)NC(=O)N1 (stereo not drawn)	7% (inactive)	
Cc1nn(-c2ccccc2)c2nc(C(F)(F)F)[nH]c(=O)c12	20% (inactive)	
c1coc(CNc2c3c(nc4ncnn24)CCCC3)c1	13.4% (inactive)	
COc1ccc(-c2csc(Nc3ccc(S(=O)(=O)Nc4cc(C)on4)cc3)n2)cc1	14.2% (inactive)	
CC1Cc2ccccc2N1S(=O)(=O)c1cccc(C(=O)N2CCN(c3ncccn3)CC2)c1 (stereo not drawn)	19.4% (inactive)	
O=C(O)c1ccccc1N/N=C\c1ccnc2ccccc12	12.3% (inactive)	
CCCCCNc1nc2ccccc2nc1NS(=O)(=O)c1cccs1	20.4% (inactive)	
CCOC(=O)c1sc(NC(=S)NC(=O)c2cccc(Cl)c2)c(C(=O)OCC)c1C	1.04% (inactive)	
COCCn1c(C)cc(C(=O)CSc2cc(C)c3ccccc3n2)c1C	7.16% (inactive)	
O=C(Nc1cccc(Cl)c1)Nc1ccnc(-c2cccnc2)n1		23.9% (inactive)
O=C(CSc1nc2nn(-c3ccccc3)c(=O)c-2c2n1CCCCC2)NCCc1ccccc1	10.8% (inactive)	
O=c1oc(/C=C/c2ccccc2)nc2ccccc12	16.6% (inactive)	
CCOC(=O)c1ccc(NC(=O)CC2S/C(=N/N=C/c3c[nH]c4ccccc34)NC2=O)cc1 (stereo not drawn)	11.7% (inactive)	
Fc1ccccc1COc1ccc2ccccc2c1CNc1nn[nH]n1	11.5% (inactive)	
COC(=O)Nc1ccc(S(=O)(=O)N2CCC(C(=O)N(C)C3CCCCC3)CC2)cc1	4.71% (inactive)	
C/C(=N\NC(=O)c1ccccc1)c1nc2ccccc2n1C	-15.5% (inactive)	

SMILES	CPE inhibition (at 20 µM (top of the series))	CPE inhibition (at 5 µM (top of the series))
C/C(=N\NC(=O)COc1ccc([N+](=O)[O-])cc1)C(C)(C)C	4.19% (inactive)	
COc1ccc(C(=O)NN/C(C)=C/C(=O)C(F)(F)C(F)(F)C(F)(F)F)cc1	-14.6% (inactive)	
O=C(O)c1csc(N/N=C/c2ccc(Br)cc2)n1	8.09% (inactive)	
C=CCn1c(SC(C)C(N)=O)nc2sc(CC)cc2c1=O (stereo not drawn)	18% (inactive)	
COc1ccc(-c2csc(NC(=O)Cc3cccc4ccccc34)c2C(=O)O)cc1	24.9% (inactive)	
O=C(c1ccco1)N1CCN(c2nc(-c3ccc(F)cc3)cs2)CC1	17.1% (inactive)	
NC(=O)c1cc([N+](=O)[O-])ccc1NCc1cccnc1	3.11% (inactive)	
CCOc1ccc(-n2c(=O)[nH]c3sc4c(c3c2=O)CCCC4)cc1	16.6% (inactive)	
O=C(Nc1cccc(NC(=O)c2cccs2)c1)c1ccco1	20.1% (inactive)	
Cc1ccc(CSc2nnc(NC(=O)C3COc4ccccc4O3)s2)cc1 (stereo not drawn)	26.6% (inactive)	
O=C1CC(N2CCC(Cc3ccccc3)CC2)C(=O)N1CCc1ccccc1 (stereo not drawn)	3.89% (inactive)	
O=C(CCn1c(=O)sc2ccccc21)NCCCn1ccnc1	4.88% (inactive)	
COC(=O)c1cc(NC(=S)NCc2ccc(Cl)cc2)cc(C(=O)OC)c1	-1.18% (inactive)	
O=[N+]([O-])c1cccc(/C=N\N=C2c3ccccc3-c3ccccc32)c1O	22.2% (inactive)	
Cc1nc(Nc2ccccc2)sc1-c1ccccc1	3.32% (inactive)	
Cn1cc([N+](=O)[O-])c(C(=O)NCc2cc3cc(Cl)ccc3[nH]2)n1	9.85% (inactive)	
CCOC(=O)c1cnc(SCc2nc(N)nc(Nc3ccc(C)cc3)n2)nc1N	29.3% (inactive)	
Cc1cccc(CSc2nnc(NC(=O)CSc3nnc(C)s3)s2)c1	17.3% (inactive)	
Cc1nn(C)cc1CN(C)Cc1ccc(OCC(O)CN2CCCCC2)cc1 (stereo not drawn)	11.1% (inactive)	
Cc1cccc(OCC(=O)Nc2cccc(C(=O)Nc3ccccc3C(=O)O)c2)c1	27.3% (inactive)	
COc1ccccc1N1CCN(Cc2ccc(OC)c3ccccc23)CC1	11.1% (inactive)	
Oc1ccccc1CNCCCNCc1ccccc1O	20.8% (inactive)	
CCOC(=O)c1nn(-c2ccc(Cl)cc2)c2nc(Nc3ccccc3)cc(=O)n12	28.9% (inactive)	
CCSc1nc2c(sc3nc(C)cc(C)c32)c(=O)[nH]1	18% (inactive)	

SMILES	CPE inhibition (at 20 µM (top of the series))	CPE inhibition (at 5 µM (top of the series))
Cc1ccc(NC(=O)/C(=C/C=C/c2ccccc2)NC(=O)c2ccccc2)cc1	19.4% (inactive)	
N=C1/C(=C/c2ccc(-c3cccc(C(=O)O)c3)o2)C(=O)N=C2SC=C(c3ccccc3)N12	16.8% (inactive)	
COc1ccccc1-n1c(C)cc(/C=C2/C(=N)N3C(=NC2=O)SN=C3S(C)(=O)=O)c1C	18.1% (inactive)	
CC(=O)Nc1ccc(SCC(=O)N(CCC#N)c2cc(C)cc(C)c2)cc1	18% (inactive)	
CCCCn1c(SCC(=O)N2CCN(c3ccccc3)CC2)nc2ccsc2c1=O	6.77% (inactive)	
COc1cc(/C=C/C(=O)c2c(O)n(CCc3ccccc3)c(=O)[nH]c2=O)ccc1O	13% (inactive)	
Cc1c(Cl)cccc1NC(=O)c1cc(-c2ccccc2O)n[nH]1	17.9% (inactive)	
COc1ccc2c(C)cc(Sc3nnnn3-c3ccccc3)nc2c1	20.9% (inactive)	
OCC1(CCOc2ccccc2)CCN(Cc2nc3ccc(F)cc3[nH]2)CC1	7.83% (inactive)	
Cc1[nH]c2ccccc2c1C1=CCNCC1	3.08% (inactive)	
C=CCOc1c(Br)cc(/C=N/Nc2ccc(C(=O)O)cc2)cc1OCC	14.1% (inactive)	
CCOc1ccc2nc(NC(=O)C3CCN(S(=O)(=O)c4cnc[nH]4)CC3)sc2c1	11.9% (inactive)	
CCCC(=O)Nc1cccc(NC(=O)c2ccc([N+](=O)[O-])cc2Cl)c1	1.21% (inactive)	
CS(=O)(=O)c1nsc2nc(=O)c(/C=C3\C=Nc4ccccc43)c(N)n12	14.8% (inactive)	
Cc1csc(NC(=O)c2ccc(C)c(S(=O)(=O)N3CCCCC3)c2)n1	24.1% (inactive)	
CCOc1ccc(S(=O)(=O)N2CCN(c3ccccc3OC)CC2)c2cccnc12	17.1% (inactive)	
CCOC(=O)c1c(-c2ccc(C)cc2)csc1NC(=O)C1CC=CCC1C(=O)O (stereo not drawn)	18.1% (inactive)	
COc1ccc(CCN(C)Cc2ccc(F)cc2F)cc1OC	3.03% (inactive)	
OC(c1ccccc1)C1CN(Cc2ccccc2)CCC1(O)c1ccccc1 (stereo not drawn)	20.9% (inactive)	
COc1cccc(-n2c(C)cc(/C=C3/C(=N)N4C(=NC3=O)SN=C4S(C)(=O)=O)c2C)c1	19.6% (inactive)	
O=C(Nc1ccc(OC(F)(F)F)cc1)c1[nH]ncc1[N+](=O)[O-]	25.3% (inactive)	
O=C(Nc1nc(-c2ccc3c(c2)OCO3)cs1)C1COc2ccccc2O1 (stereo not drawn)	22.7% (inactive)	
COc1ccc(C(=O)/C=C/c2ccc(OC)c(Cn3nnc4ccccc43)c2)cc1	15.8% (inactive)	
CC(C)(O[C@@H]1O[C@H](CO)[C@@H](O)[C@H](O)[C@H]1O)[C@H]1Cc2cc3ccc(=O)oc3cc2O1	0.22% (inactive)	

SMILES	CPE inhibition (at 20 µM (top of the series))	CPE inhibition (at 5 µM (top of the series))
N#Cc1c(C(F)(F)F)cc(-c2ccc(Cl)cc2)[nH]c1=O	25.9% (inactive)	
CC(C)c1ccc(C2=C(O)c3ccccc3C(=O)C2=O)cc1	14.3% (inactive)	
C/C(=N\NC(=O)c1c(Cl)c(C)nn1C)c1ccc(NC(=O)c2ccncc2)cc1	17.7% (inactive)	
CCc1ccc(C(=O)Nc2ccc(S(=O)(=O)Nc3nc(C)cc(C)n3)cc2)o1	24.5% (inactive)	
O=c1/c(=C/c2ccc(O)c([N+](=O)[O-])c2)sc2nc3ccccc3n12	12.4% (inactive)	
Fc1ccccc1N1CCN(Cc2nc(-c3ccc(Cl)cc3Cl)no2)CC1	19.9% (inactive)	
Cc1cc(/C=C2/C(=N)N3C(=NC2=O)SN=C3S(C)(=O)=O)c(C)n1-c1ccc(F)cc1	20.6% (inactive)	
CC1Cc2ccccc2N1C(=O)CSc1ccccc1 (stereo not drawn)	-1.84% (inactive)	
Oc1ccc(F)cc1-c1cc(-c2ccc3c(c2)OCCO3)n[nH]1	7.86% (inactive)	
COC1=C/C(=C/c2c(N)n3nc(-c4ccc(C)cc4)sc3nc2=O)C=CC1=O	29.9% (inactive)	
COCCn1c(SCc2nc3scc(-c4ccc(Cl)cc4)c3c(=O)[nH]2)nnc1-c1cccc(C)c1	17.4% (inactive)	
CC1=Nc2ccc(C)cc2/C1=C/c1c(N)n2c(S(=O)(=O)C(C)C)nsc2nc1=O	15.9% (inactive)	
Oc1c(Br)cc(C2N=C(c3ccccc3)NO2)cc1Br (stereo not drawn)	23.9% (inactive)	
CC1=C(C#N)C(=O)NC(=O)/C1=C\c1ccc(-c2cc(C)c(C)cc2[N+](=O)[O-])o1	4.65% (inactive)	
Cc1ccc(OCCSCc2nnc(NC(=O)Nc3cccc(Cl)c3)s2)cc1	19.4% (inactive)	
CCOc1ccc(-c2csc(NC(=O)CSCC(=O)O)n2)c2ccccc12	17.7% (inactive)	
Cn1c(Oc2ccccc2NCc2cc(Br)ccc2O)cc(=O)n(C)c1=O	14.3% (inactive)	
CCc1ccc(N2CCN(C(=O)c3ccc(OC)c(OC)c3)CC2)cc1	7.4% (inactive)	
CC1(C)C2CCC(C2)C1(C)NC(=O)CNCc1cccs1 (stereo not drawn)	2.65% (inactive)	
Cc1cccc2c1nc(-c1ccccc1)n1nnnc21	-3.74% (inactive)	
O=C(O)C(Cc1ccccc1)N=Cc1c(O)c2ccccc2oc1=O (stereo not drawn)	7.31% (inactive)	
